{
  "source": "patent US10660874B2",
  "about": "“Ecteinamycin, compositions and uses thereof” (Wisconsin Alumni Research Foundation, priority 2014, dated 2020)",
  "key": {"[1]": {"tested_on": "S. cerevisiae deletion mutants", "experiment": "Chemical genomic analysis in yeast deletion mutants", "assay_type": "cell-based, Saccharomyces cerevisiae", "details": "250 μg/mL; for Fold Change in abundance relative to solvent control: 48 h", "description": "A chemical genomic analysis of ecteinamycin was performed as described previously (Fling, S.-Y.; Sofiyev, V.; Schneiderman, J.; Hirschfeld, A. F.; Victor, R. E.; Woods, K.; Piotrowski, J. S.; Deshpande, R.; Li, S. C.; de Voogd, N. J.; Myers, C. L.; Boone, C.; Andersen, R. J.; Turvey, S. E. ACS Chem. Biol. 2014, 9, 247-257.). The optimal inhibitory concentration of ecteinamycin for chemical genomic profiling (70-80% growth versus solvent control in YP-Glucose media after 24 h of growth) was determined. A concentration of 250 μg/mL inhibited growth within this range. Two hundred μL cultures of a pooled, genome wide collection of S. cerevisiae deletion mutants with 250 μg/mL ecteinamycin or a DMSO control were grown in triplicate for 48 h at 30° C. The genomic DNA was extracted using the Epicentre MasterPure™ Yeast DNA purification kit. Mutant-specific molecular barcodes were amplified with specially designed multiplex primers containing adapters for Illumina sequencing. The barcodes were sequenced using an Illumina HiSeq2500 Rapid Run platform. Three replicates of each condition (ecteinamycin vs. DMSO) were sequenced. The barcode counts for each yeast deletion mutant in the presence of ecteinamycin were normalized against the DMSO control conditions to generate a Z-score to define sensitivity or resistance of individual strains (the chemical genomic profile). In addition, differential abundance analysis was calculated for each mutant's response to the ecteinamycin versus DMSO using edgeR. The mutants with very low counts (<5) were filtered out before using the edgeR package (version 3.4.2) to calculate an adjusted P-value and log fold change for each mutant. A Bonferroni corrected hypergeometric distribution test was used to search for significant enrichment of GO terms among the top sensitive and resistant deletion mutants with a P-value less than 0.0001.^42 The chemical genomic profile of ecteinamycin was compared against existing chemical genomic datasets by Pearson correlation.\nIn parallel, chemical genomic profiling with the yeast, Saccharomyces cerevisiae, was used to investigate the mechanism of action of ecteinamycin. This method has been used for determining the mechanism of action and molecular target for many bioactive compounds, including natural products. Ecteinamcyin was screened against over four thousand deletion mutant yeast strains, genomic DNA was extracted, and mutant-specific DNA barcodes were amplified and sequenced by Illumina sequencing. Ecteinamycin sensitive and resistant mutants were determined by quantification of DNA-barcodes, providing a chemical genomic profile, which was used to evaluate the mechanism of action."}, "MRSA (ATCC #33591)": {"tested_on": "MRSA (ATCC #33591)", "experiment": "MIC, dilution antimicrobial susceptibility test", "assay_type": "cell-based, Methicillin-resistant Staphylococcus aureus", "details": "Staphylococcus aureus, 18 h", "description": "Ecteinamycin was tested for antibacterial activity against C. difficile (ATCC BAA-1870), MRSA (ATCC #33591), MSSA (ATCC #29213), E. coli (ATCC #25922), P. aeruginosa (ATCC #27853), and VRE (ATCC), and MICs were determined using a dilution antimicrobial susceptibility test for aerobic (MRSA, MSSA, E. coli, P. aeruginosa, and VRE) and anaerobic (C. difficile) bacteria. Ecteinamycin was dissolved in DMSO, serially diluted to 10 concentrations (0.0313-32 μg/mL), and tested in a 96-well plate. […] Ecteinamycin and vancomycin were tested in triplicate. Six untreated media controls were included on each plate. For MRSA, MSSA, E. coli, and P. aeruginosa, the plates were incubated at 33° C. for 18 h. For C. difficile, the plate was incubated at 36° C. for 48 h anaerobically and then read visually using a mirror apparatus. All manipulations to the plate were done inside the anaerobe chamber. The MIC was determined as the lowest concentration that inhibited visible growth."}, "[2]": {"tested_on": "S. aureus (ATCC #29213) cells", "experiment": "Membrane depolarization assay (DiOC2(3), flow cytometry)", "assay_type": "cell-based", "details": "6 μg/mL, 15 minutes", "description": "S. aureus (ATCC #29213) cells were grown to log phase (14 h) in Mueller Hinton Broth cation-adjusted (MHB50) and were diluted to 0.07 OD600 with media. One mL aliquots were transferred to 1.5 mL centrifuge tubes and treated with the following in triplicate: 10 μL DMSO (control), 10 μL of 600 μg/mL ecteinamycin, 10 μL of 3.2 mg/mL ecteinamycin (1), 10 μL of 500 μM carbonyl cyanide m-chlorophenythydrazone (CCCP), and 10 μL of 3.2 mg/mL rifampicin. Additionally, each tube received 10 μL of 3 mM DiOC2(3) (3,3′-diethyloxacarbocyanine iodide). The tubes were shaken for 15 minutes at room temperature. The cells were then analyzed with a FACSCalibur (BD Biosciences) flow cytometer and CellQuestPro software (BD Biosciences). Collected data represent the geometric means of fluorescence of 40,000 gated events.\nFlow cytometry was used to determine if ecteinamycin, like other polyether ionophore antibiotics, depolarizes cell membranes. 3,3′-diethyloxacarbocyanine iodide (“DiOC2(3)”) fluoresces green in bacterial cells but shifts to red when the cell membrane is depolarized. Therefore, the ratio of red to green fluorescence is indicative of the membrane potential. S. aureus ATCC […] cells were treated with ecteinamycin at concentrations of 6 and 32 μg/mL.\nAll cells except the DMSO negative control were treated with DiOC2(3) and analyzed by flow cytometry. […]"}},
  "data": [
    {"smiles": "C=C1OC(=O)C(C(=O)CC2OC(C(C)C(O)C(CC)C(=O)C(C)(O)C3CCC(CC)(C4CCC(O)(C(C)OC)C(C)O4)O3)C(C)CC2C)=C1O", "note": "(centres unmarked) [ecteinamycin]", "values": [
      {"measurement": "growth versus solvent control", "setting": "[1]; YP-Glucose media, 24 h", "result": "70-80%"},
      {"measurement": "Fold Change in abundance relative to solvent control", "setting": "[1]; APL4 deletion mutant (sensitive)", "result": 0.076},
      {"measurement": "Fold Change in abundance relative to solvent control", "setting": "[1]; APM2 deletion mutant (sensitive)", "result": 0.037},
      {"measurement": "Fold Change in abundance relative to solvent control", "setting": "[1]; DRS2 deletion mutant (sensitive)", "result": 0.040},
      {"measurement": "Fold Change in abundance relative to solvent control", "setting": "[1]; EGT2 deletion mutant (resistant)", "result": 3.564},
      {"measurement": "Fold Change in abundance relative to solvent control", "setting": "[1]; HAL9 deletion mutant (resistant)", "result": 3.379},
      {"measurement": "Fold Change in abundance relative to solvent control", "setting": "[1]; IRC25 deletion mutant (resistant)", "result": 3.732},
      {"measurement": "Fold Change in abundance relative to solvent control", "setting": "[1]; MRH1 deletion mutant (resistant)", "result": 4.129},
      {"measurement": "Fold Change in abundance relative to solvent control", "setting": "[1]; MSS11 deletion mutant (resistant)", "result": 2.585},
      {"measurement": "Fold Change in abundance relative to solvent control", "setting": "[1]; PAR32 deletion mutant (sensitive)", "result": 0.017},
      {"measurement": "Fold Change in abundance relative to solvent control", "setting": "[1]; PHO2 deletion mutant (resistant)", "result": 5.974},
      {"measurement": "Fold Change in abundance relative to solvent control", "setting": "[1]; PHO84 deletion mutant (resistant)", "result": 2.986},
      {"measurement": "Fold Change in abundance relative to solvent control", "setting": "[1]; PRE9 deletion mutant (resistant)", "result": 5.995},
      {"measurement": "Fold Change in abundance relative to solvent control", "setting": "[1]; TRP4 deletion mutant (sensitive)", "result": 0.136},
      {"measurement": "Fold Change in abundance relative to solvent control", "setting": "[1]; UME6 deletion mutant (resistant)", "result": 10.979},
      {"measurement": "Fold Change in abundance relative to solvent control", "setting": "[1]; VPS38 deletion mutant (sensitive)", "result": 0.087},
      {"measurement": "Fold Change in abundance relative to solvent control", "setting": "[1]; YMR010W deletion mutant (sensitive)", "result": 0.122},
      {"measurement": "Fold Change in abundance relative to solvent control", "setting": "[1]; YOL162W deletion mutant (sensitive)", "result": 0.145},
      {"measurement": "Fold Change in abundance relative to solvent control", "setting": "[1]; YPL205C deletion mutant (resistant)", "result": 4.953},
      {"measurement": "Fold Change in abundance relative to solvent control", "setting": "[1]; YPR089W deletion mutant (sensitive)", "result": 0.110},
      {"measurement": "Fold Change in abundance relative to solvent control", "setting": "[1]; YPT7 deletion mutant (sensitive)", "result": 0.016},
      {"measurement": "MIC", "setting": "MRSA (ATCC #33591)", "result": 0.125, "unit": "µg/mL"},
      {"measurement": "membrane depolarization (ratio of red to green fluorescence)", "setting": "[2]", "result": "demonstrated membrane depolarization"}
    ]}
  ]
}
